Laboratory results published in patent publication US20200237700A1, “METHODS OF REDUCING OR PREVENTING OXIDATION OF SMALL DENSE LDL OR MEMBRANE POLYUNSATURATED FATTY ACIDS” (Amarin Pharmaceuticals Ireland Limited, priority 2015, published 2020).
Values joined by “and” are separate entries in the source; they are usually repeats but may differ in a detail not shown here. Equal values may be shown once.

Columns and labels:
human sdLDL = assay: Copper-induced sdLDL oxidation, TBARS (Example 7); assay type: biochemical
Experimental: (§1) An experiment to study the antioxidant effect of EPA in LDL and small dense […] performed. […] Fenofibrate, gemfibrozil, and niacin were purchased from Sigma-Aldrich. […] Vitamin E was also incubated with sample aliquots as a positive control.

[1] = test system: human LDL (unfractionated); assay: Copper-induced unfractionated LDL oxidation, TBARS 1 hr (Example 7); assay type: biochemical; conditions: 10 μM
Experimental: as §1

HUVECs exposed to oxLDL = assay: NO and ONOO− release from HUVECs exposed to oxLDL, nanosensors (Example 8); assay type: cell-based, human
Experimental: Human umbilical vein endothelial cells (HUVECs) were isolated into primary cultures from female donors by Clonetics (San Diego, Calif.) and purchased as proliferating cells. All cell culture donors were healthy, with no pregnancy or prenatal complications. […] The confluent cells (4 to 5×10^5 cells/35 mm dish) were placed with minimum essential medium containing 3 mM L-arginine and 0.1 mM BH4 [(6R)-5,6,7,8-tetrahydrobiopterin]. Before experimental use, the cells (from second or third passage) were rinsed twice with Tyrode-HEPES buffer with 1.8 mM CaCl2.
The omega-3 fatty acids (O3FAs) cis-5,8,11,14,17-eicosapentaenoic acid (EPA) and docosahexaenoic acid (DHA) were purchased from Sigma-Aldrich (St. Louis, Mo.) and prepared initially at 11 mM in redistilled ethanol. Primary and secondary O3FA stock solutions were prepared and stored under argon at −20° C. […]
Oxidation was monitored by the use of measurements of TBARS. […] TBARS concentration was determined as malondialdehyde (MDA) equivalents with the use of an MDA standard curve. […]
The amperometric method (with a response time of 0.1 ms) provides a quantitative signal (current) that is directly proportional to changes (from basal levels) in NO or ONOO^− concentration. […] Basal NO or ONOO^− levels were measured by differential pulse voltammetry in separate experiments. […]

[2] = Small angle x-ray diffraction of cholesterol-enriched POPC model membranes, cholesterol domain peak intensity (Example 9); assay type: physicochemical
Experimental: The fatty acid stock solutions were stored at −20° C. until use. […] Samples were shell-dried under nitrogen gas and placed under vacuum for 3 hours to remove residual solvent at room temperature. After desiccation, each sample was resuspended in saline buffer (0.5 mM HEPES, 154 mM NaCl, pH 7.3) to yield a final phospholipid concentration of 2.5 mg/mL. Lipid suspensions were then vortexed for 3 minutes at ambient temperature to form MLVs. Membrane lipid vesicles were oriented for x-ray diffraction analysis as described by others (e.g., Herbette et al., Biophys. […] Briefly, a 100 μL aliquot of each MLV preparation (containing 250 μg MLV) was transferred to a Lucite® sedimentation cell fitted with an aluminum foil substrate designed to collect MLVs into a single membrane pellet upon centrifugation. […] After centrifugal orientation, sample supernatants were aspirated and aluminum foil substrates, each supporting a single membrane pellet, were removed from the sedimentation cells. Sample pellets were dried for 5-10 minutes at ambient conditions, mounted onto curved glass supports, and placed in hermetically-sealed, brass or glass containers (for immediate analysis or temporary storage, respectively). All x-ray diffraction experiments were conducted at 20° C., 74% relative humidity. The latter was established by exposing membrane samples to saturated solutions of L-(+)-tartaric acid (K2C4H4O6.½H2O) for at least 1 hour prior to experimental analysis. Oriented membrane samples were aligned at grazing incidence with respect to a collimated, mono-chromatic CuKα x-ray beam (Kα1 and Kα2 unresolved; λ=1.54 Å) produced by a Rigaku Rotaflex RU-200, high-brilliance microfocus generator (Rigaku-MSC, The Woodlands, Tex.) as previously described (Mason et al., Biophys. J., vol. 55(4), pages 769-778 (1989)). The samples were initially subjected to x-ray diffraction analysis at least 12 hours after formation of the membrane pellets and retested for up to several days. […] Collimation of the x-ray beam was achieved using a single Franks mirror. Diffraction data were collected on a one-dimensional, position-sensitive electron detector (Hecus X-ray Systems, Graz, Austria) at a sample-to-detector distance of 150 mm from the sample site. […] Routines written in Origin 8.6 (OriginLab Corporation, Northampton, Mass.) were used to determine total peak area (associated with all diffraction peaks in a given pattern) against which the second-order cholesterol domain peak was normalized. […] Differences between groups were analyzed using the two-tailed, Student's t-test (for comparisons between only two groups) or ANOVA followed by Dunnett or Student-Newman-Keuls multiple comparisons post-hoc analysis (for comparisons between three or more groups). […]

[3] = test system: sdLDL isolated from human subjects under hyperglycemia; assay: Glucose-induced sdLDL oxidation, TBARS/MDA (Example 10); assay type: biochemical; conditions: 10.0 μM; glucose 200 mg/dL
Experimental: Vitamin E (α-tocopherol) purchased from Sigma-Aldrich was prepared in ethanol at 1.0 mM (c=3.06×10^4 M^−1 cm^−1 at 294 nm) prior to experimental use. Test compounds were further diluted in ethanol or aqueous buffer as needed. Phosphate Buffered Saline (PBS) purchased from Sigma-Aldrich was prepared in double distilled water at 10 mM (138 mM NaCl, 2.7 mM KCl, pH 7.4). […] Lipid oxidation was measured by the colorimetric detection of malondialdehyde (MDA), a marker of oxidative stress. Data were presented as mean±SD for (n) separate samples or experiments. Differences between groups were analyzed using the unpaired, two-tailed Student's t-test (for comparisons between only two groups) or ANOVA followed by Student-Newman-Keuls multiple comparisons post hoc analysis (for comparisons between three or more groups).

[4] = EPA to phospholipid 1:30 (Table 3)

SMILES: CC/C=C\C/C=C\C/C=C\C/C=C\C/C=C\CCCC(=O)O [EPA, cis-5,8,11,14,17-eicosapentaenoic acid]
- sdLDL oxidation after 4 hours as compared to vehicle or DHA (human sdLDL; 10.0 μM, 4 hours): significantly inhibited sdLDL oxidation
- inhibition of sdLDL oxidation vs vehicle (human sdLDL; each agent at 1.0 μM, 1 hr): 19±8%
- inhibited TBARS formation / sdLDL oxidation vs vehicle (human sdLDL; each agent at 10 μM, 1 hr): 93±2% and 92±8%
- inhibited TBARS formation compared to vehicle-treated control ([1]; unfractionated LDL): > 90%
- increased NO release (HUVECs exposed to oxLDL; ECs exposed to oxLDL, as compared to vehicle): 45%
- % Change (vs. Control) [2, 4]: −65.5 ± 17.1%
- Relative Cholesterol Domain Peak Intensity [2, 4]: 14.6 ± 5.0
- inhibited sdLDL oxidation as compared to vehicle controls [3]: 94%
- sdLDL oxidation (formation of MDA) [3]: 0.2 ± 0.1 µM

SMILES: O=C(O)c1cccnc1 [niacin, nicotinic acid]
- effect on sdLDL oxidation as compared to vehicle-treated controls (human sdLDL; 10 μM, 1 hour): no significant effect
- effect on unfractionated LDL oxidation as compared to vehicle-treated controls [1]: no significant effect
- NO/ONOO− Ratio (HUVECs exposed to oxLDL; oxLDL 20 min, then treatment 1 hour, EPA 10 μM, ATM 1.0 μM): 2.00 ± 0.52
- effect on cholesterol domains / domain size ([2]; drug-to-phospholipid mole ratio 1:30): no significant changes in cholesterol domain size
- glucose-induced sdLDL oxidation [3]: did not inhibit glucose-induced sdLDL oxidation
